According to EP1345943B1, “INHIBITORS OF PAPILLOMA VIRUS” (BOEHRINGER INGELHEIM (CANADA) LTD., priority 2000, dated 2002):

Biological target: E1-E2-DNA complex (Human papillomavirus 11, UniProt P04015)
Test: E2-dependent E1 DNA binding assay (E1-E2 DNA assay)
Settings: E1-E2 DNA assay of Example 11, HPV-11
Description: This particular assay determines the ability of a test compound to inhibit the activity (IC50) of HPV-11 DNA replication. More specifically, in the assay described herein, the inhibitory activity of the test compound is evaluated based on its ability to interfere with the E1-E2-DNA origin of replication interaction, thereby inhibiting initiation of viral DNA replication.
This assay was modeled on a similar assay for SV40 T Antigen described by McKay (J. Mol. Biol., 1981,145:471). A 400bp radiolabeled DNA probe, containing the -HPV-11 origin of replication (Chiang et al.., 1992, Proc. Natl.-Acad. Sci. USA 89:5799) was produced by pcr, using plasmid pBluescript™ SK encoding the origin (nucleotides 7886-61 of the HPV-11 genome in unique BAMH1 site) as template and primers flanking the origin. Radiolabel was incorporated as [33p]dCTP. Binding assay buffer consisted of: 20 mM Tris pH 7.6, 100 mM NaCI, 1 mM DTT, 1 mM EDTA.
Other reagents used were protein A-SPA beads (type II, Amersham) and K72 rabbit polyclonal antiserum, raised against a peptide corresponding to the C-terminal 14 amino acids of HPV-11 E1. Following the protocol from Amersham, one bottle of beads was mixed with 25 mL of binding assay buffer. For the assay, a saturating amount of K72 antiserum was added to the beads and the mixture was incubated for 1 h, washed with one volume of binding assay buffer, and then resuspended in the same volume of fresh binding assay buffer. Binding reactions contained 8 ng of E2, approximately 100-200 ng of purified E1, and 0.4 ng of radiolabeled probe in a total of 80 µL of binding assay buffer. After 1 h at room temperature, 25 µL of K72 antibody-SPA bead suspension was added to with the binding reaction and mixed. After an additional hour of incubation at room temperature, the reactions were centrifuged briefly to pellet the beads and the extent of complex formation was determined by scintillation counting on a Packard TopCount™. Typically, the signal for reactions containing E1 and E2 was 20-30 fold higher than the background observed when either E1, E2, or both was omitted.

Chain of E1-E2-DNA complex (P04015 whole entry, one chain of several): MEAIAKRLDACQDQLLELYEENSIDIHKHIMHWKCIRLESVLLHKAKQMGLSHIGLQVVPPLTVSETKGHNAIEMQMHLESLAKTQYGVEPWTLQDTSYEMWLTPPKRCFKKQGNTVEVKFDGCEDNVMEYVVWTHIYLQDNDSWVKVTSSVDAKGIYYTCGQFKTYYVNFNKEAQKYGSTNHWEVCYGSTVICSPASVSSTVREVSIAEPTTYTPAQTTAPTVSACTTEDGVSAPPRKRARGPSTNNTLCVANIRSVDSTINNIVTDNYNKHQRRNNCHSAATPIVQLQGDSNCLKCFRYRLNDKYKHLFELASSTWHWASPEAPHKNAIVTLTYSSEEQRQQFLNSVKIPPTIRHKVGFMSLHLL

SMILES | IC50
CSc1ccc(NC(=O)C2C(c3ccc(Cl)c(Cl)c3)OC3(C(=O)c4ccccc4C3=O)C2C(=O)O)cc1 (stereo not drawn) [Compound 1033] | 0.5 to 5 µM
COC(=O)C1C(C(=O)Nc2ccc3c(c2)OCO3)C(c2ccc(Cl)cc2)OC12C(=O)c1ccccc1C2=O (stereo not drawn) [Compound 1017] | 5 to 50 µM
O=C(Nc1ccc2c(c1)OCO2)C1C(c2ccc(F)c(Cl)c2)OC2(C(=O)c3ccccc3C2=O)C1C(=O)O (stereo not drawn) [Compound 1030] | 0.5 to 5 µM
O=C(NN1CCOCC1)C1C(c2ccc(F)c(Cl)c2)OC2(C(=O)c3ccccc3C2=O)C1C(=O)O (stereo not drawn) [Compound 1093] | 5 to 50 µM
O=C(NC1Cc2ccccc2C1)C1C(c2ccc(Cl)c(Cl)c2)OC2(C(=O)c3ccccc3C2=O)C1C(=O)O (stereo not drawn) [Compound 1098] | 0.5 to 5 µM
O=C(Nc1cnc2ccccc2c1)C1C(c2ccc(F)c(F)c2)OC2(C(=O)c3ccccc3C2=O)C1C(=O)O (stereo not drawn) [Compound 1061] | 5 to 50 µM
Cc1ccc(C2OC3(C(=O)c4ccccc4C3=O)C(C(=O)O)C2C(=O)Nc2ccc3c(c2)OCO3)cc1C (stereo not drawn) [Compound 1024] | 0.5 to 5 µM
Cc1ccc(N2C(=O)C3C(c4ccc(Cl)cc4)OC4(C(=O)c5ccccc5C4=O)C3C2=O)cc1 (stereo not drawn) [Compound 2006] | 5 to 50 µM
O=C1C2C(c3ccc(C(F)(F)F)cc3)OC3(C(=O)c4ccccc4C3=O)C2C(=O)N1c1ccc2c(c1)OCO2 (stereo not drawn) [Compound 2008] | 5 to 50 µM
O=C(Nc1ccc(OC(F)(F)F)cc1)C1C(c2ccc(Cl)c(Cl)c2)OC2(C(=O)c3ccccc3C2=O)C1C(=O)O (stereo not drawn) [Compound 1112] | 0.5 to 5 µM
CC(=O)c1ccc(NC(=O)C2C(c3ccc(Cl)cc3)OC3(C(=O)c4ccccc4C3=O)C2C(=O)O)cc1 (stereo not drawn) [Compound 1005] | 5 to 50 µM
O=C(Nc1ccc2c(c1)OCO2)C1C(c2cc(Cl)cc(Cl)c2)OC23C(=O)c4ccccc4C2(O)OC(=O)C13 (racemic) [Compound 3001] | 0.5 to 5 µM
COc1ccc(N2C(=O)C3C(c4ccc(Cl)cc4)OC4(C(=O)c5ccccc5C4=O)C3C2=O)cc1OC (stereo not drawn) [Compound 2002] | 5 to 50 µM
Cc1ccc(NC(=O)C2C(c3ccc(Cl)cc3)OC3(C(=O)c4ccccc4C3=O)C2C(=O)O)cc1 (stereo not drawn) [Compound 1007] | 5 to 50 µM
O=C(Nc1ccc(N2CCOCC2)cc1)C1C(c2ccc(Br)c(Br)c2)OC2(C(=O)c3ccccc3C2=O)C1C(=O)O (single isomer, unassigned) [Compound A1012] | 5 to 50 µM
Cc1cc(C)cc(NC(=O)C2C(c3ccc(Cl)c(Cl)c3)OC3(C(=O)c4ccccc4C3=O)C2C(=O)O)c1 (stereo not drawn) [Compound 1126] | 0.5 to 5 µM
O=C1C2C(c3ccc(Cl)cc3)OC3(C(=O)c4ccccc4C3=O)C2C(=O)N1c1ccc2c(c1)OCO2 (stereo not drawn) [Compound 2001] | 5 to 50 µM
Cc1ccc2c(c1)C1(O)OC(=O)C3C(C(=O)Nc4ccc(N5CCOCC5)cc4)C(c4ccc(Br)c(Br)c4)OC31C2=O (single isomer, unassigned) [Compound B1003] | < 0.5 µM
CC(=O)c1ccc(N2C(=O)C3C(c4ccc(Cl)cc4)OC4(C(=O)c5ccccc5C4=O)C3C2=O)cc1 (stereo not drawn) [Compound 2003] | 5 to 50 µM
CC(=O)c1ccc(NC(=O)C2C(C=C(C)c3ccccc3)OC3(C(=O)c4ccccc4C3=O)C2C(=O)O)cc1 (racemic) [Compound 4008] | 5 to 50 µM
O=C(Nc1cc2ccccc2cn1)C1C(c2ccc(Cl)c(Cl)c2)OC2(C(=O)c3ccccc3C2=O)C1C(=O)O (stereo not drawn) [Compound 1040] | 0.5 to 5 µM
O=C(Nc1ccc2c(c1)OCO2)C1C(c2ccc3ccccc3c2)OC2(C(=O)c3ccccc3C2=O)C1C(=O)O (stereo not drawn) [Compound 4001] | 0.5 to 5 µM
CC(=O)c1ccc(NC(=O)C2C(c3ccc(C(F)(F)F)c(F)c3)OC3(C(=O)c4ccccc4C3=O)C2C(=O)O)cc1 (stereo not drawn) [Compound 1067] | 5 to 50 µM
O=C1C2C(c3ccc(Cl)cc3)OC3(C(=O)c4ccccc4C3=O)C2C(=O)N1c1cccc(C(F)(F)F)c1 (stereo not drawn) [Compound 2011] | 5 to 50 µM
O=C1C2C(c3ccc(Cl)cc3)OC3(C(=O)c4ccccc4C3=O)C2C(=O)N1c1ccc2c(c1)CCC2 (stereo not drawn) [Compound 2012] | 5 to 50 µM
O=C(Nc1ccc2c(c1)OCO2)C1C(c2ccc(Cl)cc2)OC2(C(=O)c3ccccc3C2=O)C1C(=O)O (stereo not drawn) [Compound 1001] | 5 to 50 µM
O=C(Nc1ccccc1F)C1C(c2ccc(Cl)c(Cl)c2)OC2(C(=O)c3ccccc3C2=O)C1C(=O)O (stereo not drawn) [Compound 1125] | < 0.5 µM

SMILES | IC50
O=C(Nc1cc(F)cc(F)c1)C1C(c2ccc(F)c(Cl)c2)OC2(C(=O)c3ccccc3C2=O)C1C(=O)O (stereo not drawn) [Compound 1120] | 0.5 to 5 µM
O=C(Nc1ccc(Br)c(Cl)c1)C1C(c2ccc(F)c(Cl)c2)OC2(C(=O)c3ccccc3C2=O)C1C(=O)O (stereo not drawn) [Compound 1121] | 0.5 to 5 µM
Cc1ccc(NC(=O)C2C(c3ccc(F)c(F)c3)OC3(C(=O)c4ccccc4C3=O)C2C(=O)O)cc1 (stereo not drawn) [Compound 1132] | 5 to 50 µM
O=C(Nc1ccc(N2CCOCC2)cc1)C1C(c2ccc(Br)c(Br)c2)OC2(C(=O)c3ccccc3C2=O)C1C(=O)O (racemic) [Compound 1078] | < 0.5 µM
O=C(Nc1ccc(F)cc1)C1C(c2ccc(Cl)cc2)OC2(C(=O)c3ccccc3C2=O)C1C(=O)O (stereo not drawn) [Compound 1003] | 5 to 50 µM
Cc1ccc(NC(=O)C2C(c3ccc(Cl)c(Cl)c3)OC3(C(=O)c4ccccc4C3=O)C2C(=O)O)cc1 (stereo not drawn) [Compound 1065] | 0.5 to 5 µM
CN(CCN(C)c1ccc([N+](=O)[O-])c2nonc12)C(=O)CNCc1ccc(NC(=O)C2C(c3ccc(Cl)c(Cl)c3)OC3(C(=O)c4ccccc4C3=O)C2C(=O)O)cc1 (stereo not drawn) [Compound 1140] | 0.5 to 5 µM
CC(=O)c1ccc(NC(=O)C2C(c3cccc(Cl)c3)OC3(C(=O)c4ccccc4C3=O)C2C(=O)O)cc1 (stereo not drawn) [Compound 1044] | 5 to 50 µM
O=C(NCc1ccc2c(c1)OCO2)C1C(c2ccc(Cl)c(Cl)c2)OC2(C(=O)c3ccccc3C2=O)C1C(=O)O (stereo not drawn) [Compound 6001] | 5 to 50 µM
O=C(Nc1ccc(F)c(F)c1)C1C(c2ccc(Cl)c(Cl)c2)OC2(C(=O)c3ccccc3C2=O)C1C(=O)O (stereo not drawn) [Compound 1111] | 0.5 to 5 µM
O=C(NCCc1cccs1)C1C(c2ccc(Cl)c(Cl)c2)OC2(C(=O)c3ccccc3C2=O)C1C(=O)O (stereo not drawn) [Compound 1138] | < 0.5 µM
O=C(Nc1ccc(-c2csnn2)cc1)C1C(c2ccc(Br)c(Br)c2)OC2(C(=O)c3ccccc3C2=O)C1C(=O)O (racemic) [Compound 1076] | < 0.5 µM
CS(=O)(=O)c1ccc(NC(=O)C2C(c3ccc(Br)c(Br)c3)OC3(C(=O)c4ccccc4C3=O)C2C(=O)O)cc1 (stereo not drawn) [Compound 1086] | < 0.5 µM
CC(=O)c1ccc(NC(=O)C2C(c3ccc(Cl)c(Cl)c3)OC34C(=O)c5cc(C)sc5C3(O)OC(=O)C24)cc1 (single isomer, unassigned) [Compound D1001] | < 0.5 µM
[N-]=[N+]=Nc1c(F)c(F)c(CNC(=O)C2C(c3ccc(Cl)c(Cl)c3)OC34C(=O)c5ccccc5C3(O)OC(=O)C24)c(F)c1F (racemic) [Compound 3008] | 5 to 50 µM
Cc1cc2c(cc1F)C(=O)C13OC(c4ccc(Br)c(Br)c4)C(C(=O)Nc4ccc(N5CCOCC5)cc4)C1C(=O)OC23O (single isomer, unassigned) [Compound B1008] | < 0.5 µM
CC(=O)c1ccc(NC(=O)C2C(c3cccc(Cl)c3)OC3(C(=O)c4ccccc4C3=O)C2C(=O)O)cc1 (stereo not drawn) [Compound 1032] | 0.5 to 5 µM
COc1ccc2c(c1)C(=O)C1(OC(c3ccc(Cl)c(Cl)c3)C(C(=O)Nc3ccc(C(C)=O)cc3)C1C(=O)O)C2=O (stereo not drawn) [Compound 1130] | 5 to 50 µM
O=C(Nc1cc(F)cc(F)c1)C1C(c2ccc(Cl)c(Cl)c2)OC2(C(=O)c3ccccc3C2=O)C1C(=O)O (stereo not drawn) [Compound 1096] | 0.5 to 5 µM
Cc1ccc2c(c1)C(=O)C1(OC(c3ccc(Cl)c(Cl)c3)C(C(=O)Nc3ccc4c(c3)OCO4)C1C(=O)O)C2=O (single isomer, unassigned) [Compound A1004] | 5 to 50 µM
CC(=O)c1ccc(NC(=O)C2C(c3ccc(Cl)c(Cl)c3)OC3(C(=O)c4ccc(F)cc4C3=O)C2C(=O)O)cc1 (stereo not drawn) [Compound 1107] | 0.5 to 5 µM
Cc1ccc2c(c1)C(=O)C1(OC(c3ccc(Cl)c(Cl)c3)C(C(=O)Nc3ccc4c(c3)OCO4)C1C(=O)O)C2=O (single isomer, unassigned) [Compound A1003] | 5 to 50 µM
O=C(Nc1ccc2c(c1)OCO2)C1C(c2ccc(Cl)cc2)OC2(C(=O)c3cccc(F)c3C2=O)C1C(=O)O (stereo not drawn) [Compound 1019] | 5 to 50 µM
Cc1cc2c(s1)C(=O)C13OC(c4ccc(Br)c(Br)c4)C(C(=O)Nc4ccc(CNC(=O)OC(C)(C)C)cc4)C1C(=O)OC23O (stereo not drawn) [Compound C1003] | 0.5 to 5 µM
O=C(Nc1ccc(Cl)cc1)C1C(c2ccc(Cl)c(Cl)c2)OC2(C(=O)c3ccccc3C2=O)C1C(=O)O (stereo not drawn) [Compound 1101] | 0.5 to 5 µM
O=C(c1ccccc1)c1cccc(NC(=O)C2C(c3ccc(Cl)c(Cl)c3)OC3(C(=O)c4ccccc4C3=O)C2C(=O)O)c1 (stereo not drawn) [Compound 1100] | 0.5 to 5 µM
O=C(Nc1ccc(N2CCOCC2)cc1)C1C(c2ccc(F)c(F)c2)OC2(C(=O)c3ccccc3C2=O)C1C(=O)O (stereo not drawn) [Compound 1059] | 0.5 to 5 µM
